Measured values taken from publication PMC8185074, “Anchor extension: a structure-guided approach to design cyclic peptides targeting enzyme active sites” (Nature Communications, 2021).
Peptide text beside a SMILES is read from it.

Tests used:
HDAC6 = target: T1, HDAC6 (Homo sapiens, UniProt Q9UBN7); assay: HDAC6 inhibition, full IC50 measurement (Reaction Biology; fluorogenic p53 peptide RHKK(Ac)AMC); assay type: biochemical
T1 construct: purchased Reaction Biology Corporation (assay run by the CRO)
T1 sequence (Q9UBN7 1-1215): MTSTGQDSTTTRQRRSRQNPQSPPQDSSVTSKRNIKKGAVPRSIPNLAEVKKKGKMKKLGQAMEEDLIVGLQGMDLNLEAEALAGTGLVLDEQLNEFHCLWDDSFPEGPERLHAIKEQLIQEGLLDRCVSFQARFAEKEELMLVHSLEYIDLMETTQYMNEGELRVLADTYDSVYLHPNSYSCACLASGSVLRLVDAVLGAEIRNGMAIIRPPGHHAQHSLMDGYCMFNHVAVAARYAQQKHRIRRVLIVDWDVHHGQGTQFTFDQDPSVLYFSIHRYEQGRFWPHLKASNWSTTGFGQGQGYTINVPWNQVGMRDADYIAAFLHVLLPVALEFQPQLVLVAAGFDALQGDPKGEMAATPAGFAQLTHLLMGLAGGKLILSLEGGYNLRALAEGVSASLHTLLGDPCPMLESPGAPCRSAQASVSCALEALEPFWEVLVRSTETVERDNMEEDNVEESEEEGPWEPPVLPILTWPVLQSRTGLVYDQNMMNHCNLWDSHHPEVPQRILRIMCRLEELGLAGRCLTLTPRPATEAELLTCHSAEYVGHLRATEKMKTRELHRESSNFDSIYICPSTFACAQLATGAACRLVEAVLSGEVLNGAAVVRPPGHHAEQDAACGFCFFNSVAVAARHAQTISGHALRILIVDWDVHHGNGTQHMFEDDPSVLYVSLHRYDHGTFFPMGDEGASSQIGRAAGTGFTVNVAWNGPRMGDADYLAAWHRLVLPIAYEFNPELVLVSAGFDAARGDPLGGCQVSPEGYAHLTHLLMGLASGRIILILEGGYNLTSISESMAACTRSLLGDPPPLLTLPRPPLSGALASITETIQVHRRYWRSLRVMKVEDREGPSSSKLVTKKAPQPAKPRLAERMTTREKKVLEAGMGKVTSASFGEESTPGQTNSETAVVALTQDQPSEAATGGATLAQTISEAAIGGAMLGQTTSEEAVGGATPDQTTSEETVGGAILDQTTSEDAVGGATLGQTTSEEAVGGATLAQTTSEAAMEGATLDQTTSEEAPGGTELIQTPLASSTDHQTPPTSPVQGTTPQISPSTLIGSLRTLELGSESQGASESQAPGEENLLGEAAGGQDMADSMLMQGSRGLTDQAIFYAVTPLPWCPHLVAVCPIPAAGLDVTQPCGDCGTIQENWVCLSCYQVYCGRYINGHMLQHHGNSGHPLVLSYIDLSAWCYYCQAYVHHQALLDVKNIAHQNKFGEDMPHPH
Experimental: (§1) The assay was performed using 50 μM fluorogenic peptide from p53 residues 379-382 [RHKK(Ac)AMC] in a base reaction buffer of 50 mM Tris-HCl at pH 8.0, 137 mM NaCl, 2.7 mM KCl, 1 mM MgCl2, and freshly added 1 mg/ml BSA and 1% DMSO. Peptides were first dissolved in DMSO and then added to the reaction mixture with the enzyme using acoustic technique, enough to reach the desired concentration for that assay point. Peptide concentrations were calculated based on mass of lyophilized peptide and its molecular weight. The substrate was then added and incubated for 1 hour at 30 °C in a sealed container. After the incubation, developer was added to stop the reaction and develop color. Kinetic measurements were then performed for 20 min with Envision with 5 min intervals (Ex/Em = 360/460 nm). The endpoint after plateau was taken for IC50 measurement.
(§2) In cases where duplicate measures are used, average data is reported in the main text or Supplementary Tables.

HDAC2 = target: T2, HDAC2 (Homo sapiens, UniProt Q92769); assay: HDAC2 inhibition, full IC50 measurement (Reaction Biology; fluorogenic p53 peptide RHKK(Ac)AMC); assay type: biochemical
T2 construct: purchased Reaction Biology Corporation (assay run by the CRO)
T2 sequence (Q92769 whole entry): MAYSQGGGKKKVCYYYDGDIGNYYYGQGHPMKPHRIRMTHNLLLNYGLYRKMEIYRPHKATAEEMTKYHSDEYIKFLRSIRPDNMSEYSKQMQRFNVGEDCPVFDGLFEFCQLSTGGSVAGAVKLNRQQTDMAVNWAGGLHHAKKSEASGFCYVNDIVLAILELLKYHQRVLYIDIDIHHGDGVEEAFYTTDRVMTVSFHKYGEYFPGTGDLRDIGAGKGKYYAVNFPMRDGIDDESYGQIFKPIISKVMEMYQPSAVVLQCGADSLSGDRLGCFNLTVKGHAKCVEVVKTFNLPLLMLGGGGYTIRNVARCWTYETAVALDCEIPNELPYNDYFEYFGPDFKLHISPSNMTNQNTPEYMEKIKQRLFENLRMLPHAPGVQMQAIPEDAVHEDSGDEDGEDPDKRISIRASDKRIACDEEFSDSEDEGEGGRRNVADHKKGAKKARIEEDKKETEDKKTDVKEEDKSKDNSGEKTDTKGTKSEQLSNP
Experimental: as §1, §2

## CCCC[C@H]1NC(=O)[C@H](Cc2ccccc2)NC(=O)[C@H](CCCCCS)NC(=O)[C@@H](CCCNC(=N)N)NC(=O)[C@H](C)NC(=O)[C@@H](CO)NC(=O)[C@@H](C)NC(=O)[C@H](CCCCN)NC1=O [des4.3.1.3, SHA-Phe-dNle-Lys-dAla-dSer-Ala-dArg] (HELM PEPTIDE1{A.[dR].[O=C([C@H](CCCCCS)N[*:1])[*:2]].F.[CCCC[C@@H](N[*:1])C(=O)[*:2]].K.[dA].[dS]}$PEPTIDE1,PEPTIDE1,1:R1-8:R2$$$V2.0)
HDAC6
  6-Selectivity: fold potency for HDAC6 over HDAC2: 140 fold
HDAC6; Conc. 1.00E-05 M, t1
  HDAC6 activity raw data (signal): -1435
HDAC6; Conc. 1.00E-05 M, t2
  HDAC6 activity raw data (signal): 8169
HDAC6; Conc. 1.11E-06 M, t1
  HDAC6 activity raw data (signal): 31133
HDAC6; Conc. 1.11E-06 M, t2
  HDAC6 activity raw data (signal): 32571
HDAC6; Conc. 1.23E-07 M, t1
  HDAC6 activity raw data (signal): 145819
HDAC6; Conc. 1.23E-07 M, t2
  HDAC6 activity raw data (signal): 156860
HDAC6; Conc. 1.37E-08 M, t1
  HDAC6 activity raw data (signal): 703698
HDAC6; Conc. 1.37E-08 M, t2
  HDAC6 activity raw data (signal): 730719
HDAC6; Conc. 1.52E-09 M, t1
  HDAC6 activity raw data (signal): 1278425
HDAC6; Conc. 1.52E-09 M, t2
  HDAC6 activity raw data (signal): 1354635
HDAC6; Conc. 3.33E-06 M, t1
  HDAC6 activity raw data (signal): -1405
HDAC6; Conc. 3.33E-06 M, t2
  HDAC6 activity raw data (signal): 24989
HDAC6; Conc. 3.70E-07 M, t1
  HDAC6 activity raw data (signal): 60632
HDAC6; Conc. 3.70E-07 M, t2
  HDAC6 activity raw data (signal): 66340
HDAC6; Conc. 4.12E-08 M, t1
  HDAC6 activity raw data (signal): 363100
HDAC6; Conc. 4.12E-08 M, t2
  HDAC6 activity raw data (signal): 336992
HDAC6; Conc. 4.57E-09 M, t1
  HDAC6 activity raw data (signal): 1071704
HDAC6; Conc. 4.57E-09 M, t2
  HDAC6 activity raw data (signal): 1051810
HDAC6; Conc. 5.08E-10 M, t1
  HDAC6 activity raw data (signal): 1597632
HDAC6; Conc. 5.08E-10 M, t2
  HDAC6 activity raw data (signal): 1554939
HDAC2; Conc. 1.00E-05 M, t1
  HDAC2 activity raw data (signal): 193929
HDAC2; Conc. 1.00E-05 M, t2
  HDAC2 activity raw data (signal): 207672
HDAC2; Conc. 1.11E-06 M, t1
  HDAC2 activity raw data (signal): 922315
HDAC2; Conc. 1.11E-06 M, t2
  HDAC2 activity raw data (signal): 983057
HDAC2; Conc. 1.23E-07 M, t1
  HDAC2 activity raw data (signal): 1473586
HDAC2; Conc. 1.23E-07 M, t2
  HDAC2 activity raw data (signal): 1600746
HDAC2; Conc. 1.37E-08 M, t1
  HDAC2 activity raw data (signal): 1736023
HDAC2; Conc. 1.37E-08 M, t2
  HDAC2 activity raw data (signal): 1721378
HDAC2; Conc. 1.52E-09 M, t1
  HDAC2 activity raw data (signal): 1807312
HDAC2; Conc. 1.52E-09 M, t2
  HDAC2 activity raw data (signal): 1809308
HDAC2; Conc. 3.33E-06 M, t1
  HDAC2 activity raw data (signal): 507679
HDAC2; Conc. 3.33E-06 M, t2
  HDAC2 activity raw data (signal): 555133
HDAC2; Conc. 3.70E-07 M, t1
  HDAC2 activity raw data (signal): 1323328
HDAC2; Conc. 3.70E-07 M, t2
  HDAC2 activity raw data (signal): 1396903
HDAC2; Conc. 4.12E-08 M, t1
  HDAC2 activity raw data (signal): 1569368
HDAC2; Conc. 4.12E-08 M, t2
  HDAC2 activity raw data (signal): 1738468
HDAC2; Conc. 4.57E-09 M, t1
  HDAC2 activity raw data (signal): 1706591
HDAC2; Conc. 4.57E-09 M, t2
  HDAC2 activity raw data (signal): 1632561
HDAC2; Conc. 5.08E-10 M, t1
  HDAC2 activity raw data (signal): 1698338
HDAC2; Conc. 5.08E-10 M, t2
  HDAC2 activity raw data (signal): 1730008

## CCCC[C@H]1NC(=O)[C@H](Cc2ccccc2)NC(=O)[C@H](CCCCCS)NC(=O)[C@@H](CO)NC(=O)[C@H](CC(=O)O)NC(=O)[C@@H](CO)NC(=O)[C@@H](C)NC(=O)[C@H](CCCCN)NC1=O [des4.3.1.1, SHA-Phe-dNle-Lys-dAla-dSer-Asp-dSer] (HELM PEPTIDE1{D.[dS].[O=C([C@H](CCCCCS)N[*:1])[*:2]].F.[CCCC[C@@H](N[*:1])C(=O)[*:2]].K.[dA].[dS]}$PEPTIDE1,PEPTIDE1,1:R1-8:R2$$$V2.0)
HDAC6
  6-Selectivity: fold potency for HDAC6 over HDAC2: 31.25 fold
HDAC6; Conc. 1.00E-05 M, t1
  HDAC6 activity raw data (signal): 121881
HDAC6; Conc. 1.00E-05 M, t2
  HDAC6 activity raw data (signal): 130414
HDAC6; Conc. 1.11E-06 M, t1
  HDAC6 activity raw data (signal): 580651
HDAC6; Conc. 1.11E-06 M, t2
  HDAC6 activity raw data (signal): 615445
HDAC6; Conc. 1.23E-07 M, t1
  HDAC6 activity raw data (signal): 1294999
HDAC6; Conc. 1.23E-07 M, t2
  HDAC6 activity raw data (signal): 1440536
HDAC6; Conc. 1.37E-08 M, t1
  HDAC6 activity raw data (signal): 1520011
HDAC6; Conc. 1.37E-08 M, t2
  HDAC6 activity raw data (signal): 1756812
HDAC6; Conc. 1.52E-09 M, t1
  HDAC6 activity raw data (signal): 1628369
HDAC6; Conc. 1.52E-09 M, t2
  HDAC6 activity raw data (signal): 1677368
HDAC6; Conc. 3.33E-06 M, t1
  HDAC6 activity raw data (signal): 268413
HDAC6; Conc. 3.33E-06 M, t2
  HDAC6 activity raw data (signal): 332099
HDAC6; Conc. 3.70E-07 M, t1
  HDAC6 activity raw data (signal): 971918
HDAC6; Conc. 3.70E-07 M, t2
  HDAC6 activity raw data (signal): 981413
HDAC6; Conc. 4.12E-08 M, t1
  HDAC6 activity raw data (signal): 1459081
HDAC6; Conc. 4.12E-08 M, t2
  HDAC6 activity raw data (signal): 1648611
HDAC6; Conc. 4.57E-09 M, t1
  HDAC6 activity raw data (signal): 1570327
HDAC6; Conc. 4.57E-09 M, t2
  HDAC6 activity raw data (signal): 1728944
HDAC6; Conc. 5.08E-10 M, t1
  HDAC6 activity raw data (signal): 1620579
HDAC6; Conc. 5.08E-10 M, t2
  HDAC6 activity raw data (signal): 1733616
HDAC2; Conc. 1.00E-05 M, t1
  HDAC2 activity raw data (signal): 1283086
HDAC2; Conc. 1.00E-05 M, t2
  HDAC2 activity raw data (signal): 1486401
HDAC2; Conc. 1.11E-06 M, t1
  HDAC2 activity raw data (signal): 1660902
HDAC2; Conc. 1.11E-06 M, t2
  HDAC2 activity raw data (signal): 1799195
HDAC2; Conc. 1.23E-07 M, t1
  HDAC2 activity raw data (signal): 1764651
HDAC2; Conc. 1.23E-07 M, t2
  HDAC2 activity raw data (signal): 1879798
HDAC2; Conc. 1.37E-08 M, t1
  HDAC2 activity raw data (signal): 1818162
HDAC2; Conc. 1.37E-08 M, t2
  HDAC2 activity raw data (signal): 1980324
HDAC2; Conc. 1.52E-09 M, t1
  HDAC2 activity raw data (signal): 1787655
HDAC2; Conc. 1.52E-09 M, t2
  HDAC2 activity raw data (signal): 1860263
HDAC2; Conc. 3.33E-06 M, t1
  HDAC2 activity raw data (signal): 1631295
HDAC2; Conc. 3.33E-06 M, t2
  HDAC2 activity raw data (signal): 1725891
HDAC2; Conc. 3.70E-07 M, t1
  HDAC2 activity raw data (signal): 1679365
HDAC2; Conc. 3.70E-07 M, t2
  HDAC2 activity raw data (signal): 1920676
HDAC2; Conc. 4.12E-08 M, t1
  HDAC2 activity raw data (signal): 1853084
HDAC2; Conc. 4.12E-08 M, t2
  HDAC2 activity raw data (signal): 2007168
HDAC2; Conc. 4.57E-09 M, t1
  HDAC2 activity raw data (signal): 1817065
HDAC2; Conc. 4.57E-09 M, t2
  HDAC2 activity raw data (signal): 1855125
HDAC2; Conc. 5.08E-10 M, t1
  HDAC2 activity raw data (signal): 1872757
HDAC2; Conc. 5.08E-10 M, t2
  HDAC2 activity raw data (signal): 1875796
